Measurements reported in article PMC5793714, “Functional implications of corticosteroid-binding globulin N-glycosylation” (Journal of Molecular Endocrinology, 2017).
pKd: −log10 of the molar value.

How the values were obtained:
[1] = target: T1, rat CBG (Rattus norvegicus, UniProt P31211); test: saturation binding, dextran-coated charcoal, Scatchard
T1 construct: gene Serpina6; full-length cDNA in pcDNA3, secreted mature N-glycosylated protein from stably transfected CHO-S cells (also Lec1 and Lec2 lines), FPLC semi-purified or concentrated medium; no tag told
T1 sequence (P31211 23-396): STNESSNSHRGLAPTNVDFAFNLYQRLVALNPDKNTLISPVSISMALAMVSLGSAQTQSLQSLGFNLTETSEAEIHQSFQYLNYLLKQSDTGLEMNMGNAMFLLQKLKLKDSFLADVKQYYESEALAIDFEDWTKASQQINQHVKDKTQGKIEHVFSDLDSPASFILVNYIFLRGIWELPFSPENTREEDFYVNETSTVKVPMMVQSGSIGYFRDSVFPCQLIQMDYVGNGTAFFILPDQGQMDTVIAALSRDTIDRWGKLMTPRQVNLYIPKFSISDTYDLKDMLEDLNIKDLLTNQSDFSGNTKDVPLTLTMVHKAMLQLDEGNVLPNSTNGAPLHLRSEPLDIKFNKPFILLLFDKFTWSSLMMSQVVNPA

[2] = target: T2, human CBG (corticosteroid-binding globulin, SERPINA6) (Homo sapiens, UniProt P08185); test: as above
T2 construct: full-length cDNA in pRc/CMV, secreted mature N-glycosylated protein from stably transfected CHO-S cells (also Lec1 and Lec2 lines), semi-purified by HiTrap QFF FPLC or concentrated medium; no tag told
T2 sequence (P08185 23-405): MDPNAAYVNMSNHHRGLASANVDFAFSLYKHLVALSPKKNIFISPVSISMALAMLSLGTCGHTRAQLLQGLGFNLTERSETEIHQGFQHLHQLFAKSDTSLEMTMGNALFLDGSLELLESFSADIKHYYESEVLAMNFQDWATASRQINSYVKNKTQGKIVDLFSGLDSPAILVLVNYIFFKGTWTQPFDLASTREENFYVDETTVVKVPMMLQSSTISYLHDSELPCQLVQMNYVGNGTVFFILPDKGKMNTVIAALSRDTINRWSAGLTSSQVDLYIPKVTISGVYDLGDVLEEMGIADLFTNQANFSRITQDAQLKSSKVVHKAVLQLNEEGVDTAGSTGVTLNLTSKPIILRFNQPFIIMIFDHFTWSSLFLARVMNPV

pKd [1] | pKd [2] | SMILES
8.68 | – | C[C@]12C[C@H](O)[C@H]3[C@@H](CCC4=CC(=O)CC[C@@]43C)[C@@H]1CC[C@@H]2C(=O)CO [corticosterone]
– | 8.96 | C[C@]12CCC(=O)C=C1CC[C@@H]1[C@@H]2[C@@H](O)C[C@@]2(C)[C@H]1CC[C@]2(O)C(=O)CO [cortisol]
